The source made the active and inactive calls. No cut-off for these calls is given here.
Key:
[1] = target: Histone acetyltransferase KAT2B (Homo sapiens, UniProt Q92831); test: PCAF DiscoverX BROMOscan
[2] = target: T1, Bromodomain-containing protein 3 (Homo sapiens, UniProt Q15059); test: BRD3(1,2) DiscoverX BROMOscan
Target sequence in this assay (Q15059 whole entry): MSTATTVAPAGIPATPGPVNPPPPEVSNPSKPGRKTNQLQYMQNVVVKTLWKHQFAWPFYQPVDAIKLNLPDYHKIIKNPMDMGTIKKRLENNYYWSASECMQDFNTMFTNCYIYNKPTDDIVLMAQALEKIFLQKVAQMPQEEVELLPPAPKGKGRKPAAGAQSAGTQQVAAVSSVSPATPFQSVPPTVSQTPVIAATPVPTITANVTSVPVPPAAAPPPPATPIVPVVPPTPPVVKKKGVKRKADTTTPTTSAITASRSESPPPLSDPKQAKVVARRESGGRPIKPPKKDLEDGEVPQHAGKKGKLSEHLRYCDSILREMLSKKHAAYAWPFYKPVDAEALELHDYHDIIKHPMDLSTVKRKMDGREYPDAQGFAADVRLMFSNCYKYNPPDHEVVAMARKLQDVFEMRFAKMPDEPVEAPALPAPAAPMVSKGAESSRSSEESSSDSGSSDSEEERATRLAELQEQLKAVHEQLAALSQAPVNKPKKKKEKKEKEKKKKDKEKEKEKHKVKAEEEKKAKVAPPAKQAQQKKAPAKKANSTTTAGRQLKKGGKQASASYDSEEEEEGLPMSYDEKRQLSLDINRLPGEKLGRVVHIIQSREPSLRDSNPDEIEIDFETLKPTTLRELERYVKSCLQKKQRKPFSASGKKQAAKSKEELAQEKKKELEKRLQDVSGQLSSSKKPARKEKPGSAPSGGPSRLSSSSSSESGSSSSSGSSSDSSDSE

[3] = target: T2, Bromodomain-containing protein 2 (Homo sapiens, UniProt P25440); test: BET mutant TR-FRET assay (BRD2 BD1)
[4] = target: 5-hydroxytryptamine receptor 1D (Homo sapiens, UniProt P28221); conditions: Compound concentration 10.0 uM
[5] = target: T3, Bromodomain testis-specific protein (Homo sapiens, UniProt Q58F21); test: TR-FRET assay (BRDT BD1)
[6] = target: T1, Bromodomain-containing protein 3; test: BRD3 BD1 Bromoscan (DiscoverX)
Target sequence in this assay (Q15059 whole entry): as above

[7] = target: T2, Bromodomain-containing protein 2; test: BRD2(2) DiscoverX BROMOscan
Target sequence in this assay (P25440 whole entry): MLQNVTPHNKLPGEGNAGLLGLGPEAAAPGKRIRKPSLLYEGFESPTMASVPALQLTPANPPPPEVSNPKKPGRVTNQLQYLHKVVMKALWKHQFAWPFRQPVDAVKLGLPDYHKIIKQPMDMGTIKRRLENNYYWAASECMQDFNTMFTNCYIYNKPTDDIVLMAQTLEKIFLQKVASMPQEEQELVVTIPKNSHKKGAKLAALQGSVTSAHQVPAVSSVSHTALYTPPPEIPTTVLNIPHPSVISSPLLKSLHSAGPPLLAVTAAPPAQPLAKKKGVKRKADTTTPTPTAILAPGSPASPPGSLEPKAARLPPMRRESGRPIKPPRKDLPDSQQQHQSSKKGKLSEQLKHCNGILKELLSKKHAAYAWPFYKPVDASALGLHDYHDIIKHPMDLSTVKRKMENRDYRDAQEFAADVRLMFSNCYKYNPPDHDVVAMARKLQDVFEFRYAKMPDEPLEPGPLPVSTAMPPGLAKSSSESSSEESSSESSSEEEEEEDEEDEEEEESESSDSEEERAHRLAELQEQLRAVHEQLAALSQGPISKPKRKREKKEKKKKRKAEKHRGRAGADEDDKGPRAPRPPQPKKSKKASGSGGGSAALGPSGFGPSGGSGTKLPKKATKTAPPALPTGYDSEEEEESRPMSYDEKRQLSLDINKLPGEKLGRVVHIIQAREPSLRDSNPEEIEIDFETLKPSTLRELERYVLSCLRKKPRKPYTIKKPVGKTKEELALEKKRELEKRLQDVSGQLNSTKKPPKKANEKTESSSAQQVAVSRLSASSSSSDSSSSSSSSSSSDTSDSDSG

[8] = target: GABA-A receptor; anion channel (Rattus norvegicus) (UniProt O09028+P15431+P18506+P18508+P19969+P20236+P23574+P23576+P28471+P28473+P30191+P62813+P63079+P63138+Q91ZM7+Q9ES14); conditions: Compound concentration 10.0 uM
[9] = target: Beta-2 adrenergic receptor (Homo sapiens, UniProt P07550); conditions: Compound concentration 10.0 uM
[10] = target: T3, Bromodomain testis-specific protein; test: BRDT(2) DiscoverX BROMOscan
[11] = target: 5-hydroxytryptamine receptor 3A (Homo sapiens) (UniProt P46098); conditions: Compound concentration 10.0 uM
[12] = target: Bromodomain and PHD finger-containing protein 3 (Homo sapiens, UniProt Q9ULD4); test: BRPF3 DiscoverX BROMOscan
[13] = target: Histone acetyltransferase KAT2A (Homo sapiens, UniProt Q92830); test: GCN5L2 DiscoverX BROMOscan
Peregrin = Peregrin (Homo sapiens, UniProt P55201); test: BRPF1 DiscoverX BROMOscan
[14] = target: Histamine H4 receptor (Homo sapiens) (UniProt Q9H3N8); conditions: Compound concentration 10.0 uM
[15] = target: 5-hydroxytryptamine receptor 6 (Homo sapiens) (UniProt P50406); conditions: Compound concentration 10.0 uM
Sequence of 5-hydroxytryptamine receptor 6 (Homo sapiens) (P50406 whole entry): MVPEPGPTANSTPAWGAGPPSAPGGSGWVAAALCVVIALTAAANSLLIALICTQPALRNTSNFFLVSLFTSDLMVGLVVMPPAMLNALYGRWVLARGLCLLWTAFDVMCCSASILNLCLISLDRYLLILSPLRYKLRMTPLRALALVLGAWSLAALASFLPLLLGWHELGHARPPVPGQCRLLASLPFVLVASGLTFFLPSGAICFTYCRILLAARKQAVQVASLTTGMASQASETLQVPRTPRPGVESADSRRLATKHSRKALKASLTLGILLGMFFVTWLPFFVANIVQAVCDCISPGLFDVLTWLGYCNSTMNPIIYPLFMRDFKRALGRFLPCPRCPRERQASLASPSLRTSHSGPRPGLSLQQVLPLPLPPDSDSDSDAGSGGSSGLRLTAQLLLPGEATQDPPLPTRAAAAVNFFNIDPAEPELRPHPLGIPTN

[16] = target: SWI/SNF-related matrix-associated actin-dependent regulator of chromatin subfamily A member 4 (Homo sapiens, UniProt P51532); test: SMARCA4 DiscoverX BROMOscan
[17] = target: Beta-1 adrenergic receptor (Homo sapiens) (UniProt P08588); conditions: Compound concentration 10.0 uM
[18] = target: Bromodomain-containing protein 8 (Homo sapiens, UniProt Q9H0E9); test: BRD8(1) DiscoverX BROMOscan
[19] = target: GABA-A receptor; anion channel; test: (§1) Cross screening panel; format: protein-complex assay
[20] = target: Sodium-dependent dopamine transporter (Homo sapiens) (UniProt Q01959); conditions: Compound concentration 10.0 uM
Sequence of Sodium-dependent dopamine transporter (Homo sapiens) (Q01959 whole entry): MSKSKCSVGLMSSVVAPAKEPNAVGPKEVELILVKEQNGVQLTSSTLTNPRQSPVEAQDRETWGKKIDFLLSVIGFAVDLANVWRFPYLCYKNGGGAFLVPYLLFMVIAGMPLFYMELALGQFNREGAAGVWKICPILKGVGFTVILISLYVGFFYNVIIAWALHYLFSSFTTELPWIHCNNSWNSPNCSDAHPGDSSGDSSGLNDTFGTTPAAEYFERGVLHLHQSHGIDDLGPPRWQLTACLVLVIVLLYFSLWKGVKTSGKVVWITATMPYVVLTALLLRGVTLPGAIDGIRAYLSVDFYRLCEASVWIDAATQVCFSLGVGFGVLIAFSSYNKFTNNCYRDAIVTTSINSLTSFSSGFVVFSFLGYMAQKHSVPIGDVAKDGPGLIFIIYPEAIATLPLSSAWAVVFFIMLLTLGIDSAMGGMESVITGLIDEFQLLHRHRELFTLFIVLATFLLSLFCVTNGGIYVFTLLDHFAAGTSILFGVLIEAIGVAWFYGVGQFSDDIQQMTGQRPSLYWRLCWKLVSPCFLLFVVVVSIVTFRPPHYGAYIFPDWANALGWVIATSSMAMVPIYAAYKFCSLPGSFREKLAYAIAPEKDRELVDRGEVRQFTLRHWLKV

[21] = target: GABA-A receptor; anion channel; test: as §1; format: protein-complex assay; remark: listed apart in the source
[22] = target: Voltage-gated potassium channel, IKs; KCNQ1(Kv7.1)/KCNE1(MinK) (Homo sapiens, UniProt P15382+P51787); test: as §1; format: protein-complex assay
[23] = target: Delta-type opioid receptor (Homo sapiens) (UniProt P41143); conditions: Compound concentration 10.0 uM
[24] = target: Sodium-dependent noradrenaline transporter (Homo sapiens) (UniProt P23975); conditions: Compound concentration 10.0 uM
[25] = target: Sigma non-opioid intracellular receptor 1 (Homo sapiens) (UniProt Q99720); conditions: Compound concentration 10.0 uM
[26] = target: Bromodomain and WD repeat-containing protein 1 (Homo sapiens, UniProt Q9NSI6); test: WDR9(2) DiscoverX BROMOscan
[27] = target: T3, Bromodomain testis-specific protein; test: BET mutant TR-FRET assay (BRDT BD2)
[28] = target: Muscarinic acetylcholine receptor M3 (Homo sapiens) (UniProt P20309); conditions: Compound concentration 10.0 uM
[29] = target: T3, Bromodomain testis-specific protein; test: BRDT(1,2) DiscoverX BROMOscan
[30] = target: Muscarinic acetylcholine receptor M4 (Homo sapiens) (UniProt P08173); conditions: Compound concentration 10.0 uM
[31] = target: T3, Bromodomain testis-specific protein; test: BRDT(1) DiscoverX BROMOscan
[32] = target: Chromatin remodeling regulator CECR2 (Homo sapiens, UniProt Q9BXF3); test: CECR2 DiscoverX BROMOscan
[33] = target: Histamine H2 receptor (Homo sapiens) (UniProt P25021); conditions: Compound concentration 10.0 uM
[34] = target: T2, Bromodomain-containing protein 2; test: BRD2 BD2 Bromoscan (DiscoverX)
Target sequence in this assay (P25440 whole entry): as the sequence (P25440 whole entry) above

[35] = target: T3, Bromodomain testis-specific protein; test: BET mutant TR-FRET assay (BRDT BD1)
[36] = target: D(4) dopamine receptor (Homo sapiens) (UniProt P21917); conditions: Compound concentration 10.0 uM
[37] = target: Tyrosine-protein kinase Lck (Homo sapiens, UniProt P06239); test: as §1
[38] = target: Nuclear receptor subfamily 1 group I member 2 (Homo sapiens, UniProt O75469); test: as §1
[39] = target: Alpha-1B adrenergic receptor (Homo sapiens, UniProt P35368); test: as §1
[40] = target: Acetylcholine receptor subunit alpha (Homo sapiens, UniProt P02708); test: as §1
Sequence of Acetylcholine receptor subunit alpha (P02708 whole entry): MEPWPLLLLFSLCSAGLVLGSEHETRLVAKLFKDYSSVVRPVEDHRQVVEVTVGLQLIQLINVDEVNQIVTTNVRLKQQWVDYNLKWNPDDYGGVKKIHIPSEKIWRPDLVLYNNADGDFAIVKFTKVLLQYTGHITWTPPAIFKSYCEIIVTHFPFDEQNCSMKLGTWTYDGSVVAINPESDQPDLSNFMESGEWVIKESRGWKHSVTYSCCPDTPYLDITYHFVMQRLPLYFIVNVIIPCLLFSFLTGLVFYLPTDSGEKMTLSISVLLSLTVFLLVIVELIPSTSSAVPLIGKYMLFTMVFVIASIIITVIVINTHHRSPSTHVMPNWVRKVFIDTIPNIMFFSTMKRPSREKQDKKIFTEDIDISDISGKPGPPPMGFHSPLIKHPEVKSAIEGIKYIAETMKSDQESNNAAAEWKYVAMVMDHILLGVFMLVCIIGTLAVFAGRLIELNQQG

[41] = target: T4, 5-hydroxytryptamine receptor 2A (Homo sapiens, UniProt P28223); test: as §1
T4 sequence (P28223 whole entry): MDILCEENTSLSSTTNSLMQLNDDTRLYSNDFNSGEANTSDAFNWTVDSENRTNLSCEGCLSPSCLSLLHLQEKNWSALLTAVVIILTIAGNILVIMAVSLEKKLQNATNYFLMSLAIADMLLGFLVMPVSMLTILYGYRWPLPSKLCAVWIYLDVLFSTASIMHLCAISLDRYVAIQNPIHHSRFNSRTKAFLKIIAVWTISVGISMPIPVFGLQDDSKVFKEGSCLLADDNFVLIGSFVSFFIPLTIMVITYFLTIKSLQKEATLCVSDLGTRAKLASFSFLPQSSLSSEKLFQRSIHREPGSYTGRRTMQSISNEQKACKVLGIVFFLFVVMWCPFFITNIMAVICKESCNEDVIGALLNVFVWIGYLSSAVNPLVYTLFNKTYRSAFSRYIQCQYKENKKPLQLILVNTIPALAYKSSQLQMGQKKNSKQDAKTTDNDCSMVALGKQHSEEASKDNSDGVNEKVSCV

[42] = target: Muscarinic acetylcholine receptor M2 (Homo sapiens, UniProt P08172); test: as §1
Sequence of Muscarinic acetylcholine receptor M2 (P08172 whole entry): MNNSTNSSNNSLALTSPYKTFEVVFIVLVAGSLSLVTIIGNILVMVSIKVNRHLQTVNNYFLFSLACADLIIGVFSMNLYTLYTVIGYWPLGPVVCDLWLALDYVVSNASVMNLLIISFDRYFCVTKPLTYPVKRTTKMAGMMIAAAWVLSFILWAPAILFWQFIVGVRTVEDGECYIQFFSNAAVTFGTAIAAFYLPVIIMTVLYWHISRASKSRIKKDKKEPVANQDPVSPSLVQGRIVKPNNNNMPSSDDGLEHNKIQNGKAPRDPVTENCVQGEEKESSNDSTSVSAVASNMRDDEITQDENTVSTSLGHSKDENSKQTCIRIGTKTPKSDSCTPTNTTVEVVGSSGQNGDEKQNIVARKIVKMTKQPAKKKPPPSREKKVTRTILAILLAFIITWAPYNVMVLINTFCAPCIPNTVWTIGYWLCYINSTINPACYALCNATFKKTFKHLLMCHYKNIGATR

Cannabinoid receptor 2 = Cannabinoid receptor 2 (Homo sapiens, UniProt P34972); test: as §1
[43] = target: Alpha-2C adrenergic receptor (Homo sapiens, UniProt P18825); test: as §1
Sequence of Alpha-2C adrenergic receptor (P18825 whole entry): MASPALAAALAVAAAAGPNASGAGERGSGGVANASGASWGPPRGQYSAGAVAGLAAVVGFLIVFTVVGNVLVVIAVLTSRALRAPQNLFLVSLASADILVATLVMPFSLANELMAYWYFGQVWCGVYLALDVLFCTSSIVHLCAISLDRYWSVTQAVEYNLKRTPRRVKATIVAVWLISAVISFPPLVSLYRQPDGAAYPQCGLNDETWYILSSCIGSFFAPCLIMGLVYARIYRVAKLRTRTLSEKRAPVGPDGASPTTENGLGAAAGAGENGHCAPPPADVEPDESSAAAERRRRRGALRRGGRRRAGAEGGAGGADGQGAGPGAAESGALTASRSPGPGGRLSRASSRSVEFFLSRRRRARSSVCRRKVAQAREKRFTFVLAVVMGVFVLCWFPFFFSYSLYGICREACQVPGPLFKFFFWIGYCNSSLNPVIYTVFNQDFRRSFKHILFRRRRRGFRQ

[44] = target: 3',5'-cyclic-AMP phosphodiesterase 4B (Homo sapiens, UniProt Q07343); test: as §1
[45] = target: T3, Bromodomain testis-specific protein; test: BRDT BD1 Bromoscan (DiscoverX)
[46] = target: T1, Bromodomain-containing protein 3; test: BET mutant TR-FRETassay (BRD3 BD1)
[47] = target: T2, Bromodomain-containing protein 2; test: TR-FRET assay (BRD2 BD1)
Target sequence in this assay (P25440 whole entry): as the sequence (P25440 whole entry) above

[48] = target: D(3) dopamine receptor (Homo sapiens) (UniProt P35462); conditions: Compound concentration 10.0 uM
[49] = target: Bromodomain adjacent to zinc finger domain protein 2B (Homo sapiens, UniProt Q9UIF8); test: BAZ2B DiscoverX BROMOscan
[50] = target: 5-hydroxytryptamine receptor 2C (Homo sapiens) (UniProt P28335); test: as §1; conditions: filed as antagonist
[51] = target: T4, 5-hydroxytryptamine receptor 2A; test: as §1; conditions: filed as antagonist
D(1A) dopamine receptor = D(1A) dopamine receptor (Homo sapiens, UniProt P21728); conditions: Compound concentration 10.0 uM
[52] = target: 5-hydroxytryptamine receptor 1A (Homo sapiens) (UniProt P08908); conditions: Compound concentration 10.0 uM
Sequence of 5-hydroxytryptamine receptor 1A (Homo sapiens) (P08908 whole entry): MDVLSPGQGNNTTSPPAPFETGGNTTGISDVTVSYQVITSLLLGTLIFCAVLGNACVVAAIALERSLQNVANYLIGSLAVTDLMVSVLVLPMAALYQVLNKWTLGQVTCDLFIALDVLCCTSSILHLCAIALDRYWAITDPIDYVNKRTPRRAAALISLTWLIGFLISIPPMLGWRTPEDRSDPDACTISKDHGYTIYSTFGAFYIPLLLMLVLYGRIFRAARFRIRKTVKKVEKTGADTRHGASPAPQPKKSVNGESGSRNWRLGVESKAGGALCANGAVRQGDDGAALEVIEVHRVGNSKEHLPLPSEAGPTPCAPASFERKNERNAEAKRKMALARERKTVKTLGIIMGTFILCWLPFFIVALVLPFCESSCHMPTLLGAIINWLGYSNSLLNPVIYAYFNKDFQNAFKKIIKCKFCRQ

[53] = target: T3, Bromodomain testis-specific protein; test: TR-FRET assay (BRDT BD2)

With CC(=O)Nc1c(F)cc(C(=O)N[C@H]2CC[C@H](O)CC2)cc1O[C@@H](C)c1ccccc1 [GSK046] the Kd [1] was 30 µM, the Kd [2] was 0.047 µM and the pIC50 [3] was 5. For the same compound, the inhibition [4] was 84.2%, the IC50 [5] was > 50.1 µM (not active) and the Kd [6] was 2.08 µM (not active). It also gave a Kd [7] of 0.035 µM, an inhibition [8] of 0.61% and an inhibition [9] of 28.1%. It also gave a Kd [10] of 0.015 µM, an inhibition [11] of 3.77% and a Kd [12] of 30 µM. For the same compound, the Kd [13] was 30 µM, the Kd (Peregrin) was 30 µM and the inhibition [14] was 20.1%. It also gave an inhibition [15] of 11.4%, a Kd [16] of 30 µM and an inhibition [17] of -6.85%. For the same compound, the Kd [18] was 30 µM, the pEC50 [19] was < 4 and the inhibition [20] was 3.3%. The pEC50 [21] was < 4, the pIC50 [21] was < 4 and the IC50 [22] was > 25.1 µM. The inhibition [23] was 27.1%, the inhibition [24] was -0.92% and the inhibition [25] was 6.84%. The Kd [26] was 30 µM, the pIC50 [27] was 6.7 and the inhibition [28] was 16%. The Kd [29] was 0.036 µM, the inhibition [30] was -0.27% and the Kd [31] was 2.45 µM. The Kd [32] was 30 µM, the inhibition [33] was -7.57% and the Kd [34] was 0.035 µM (active). For the same compound, the pIC50 [35] was 4.3, the inhibition [36] was 36% and the IC50 [37] was > 31.6 µM. For the same compound, the EC50 [38] was > 50.1 µM, the Ki [39] was > 25.1 µM and the EC50 [40] was > 50.1 µM. For the same compound, the IC50 [40] was 25.1 µM, the EC50 [41] was > 25.1 µM and the EC50 [42] was > 50.1 µM. For the same compound, the IC50 [42] was > 50.1 µM, the EC50 (Cannabinoid receptor 2) was > 100 µM and the EC50 [43] was > 100 µM. For the same compound, the IC50 [44] was > 100 µM, the Kd [45] was 2.45 µM (not active) and the pIC50 [46] was 4.4. For the same compound, the IC50 [47] was 11 µM (not active), the inhibition [48] was 39.1% and the Kd [49] was 30 µM. The fpKi [50] was < 4.6, the fpKi [51] was < 4.6 and the inhibition (D(1A) dopamine receptor) was 4.11%. For the same compound, the inhibition [52] was -8.96% and the IC50 [53] was 0.214 µM (active).
